Experimental data published in the supplement of paper PMC10307832.

Legend:
Experiment in all cases: relative viability (nuclei count vs DMSO), 5 days (fraction); higher = more cells survive
[1] = system: HCC-827
In short: (§1)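 The day after seeding in 1536-well plates, lung cancer cell lines were treated by pin tool with a single drug, or with a fixed anchor-drug dose together with five library-drug doses (not always all listed) in √10 steps. After 5 days, a combined fix-and-stain solution (final 0.05% Triton X-100, 1% formaldehyde, 1 ug/ml Hoechst) was added. Nuclei counted on 4× images gave relative viability as treated counts over vehicle counts, reported as the median of duplicate plates.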

[2] = system: NCI-H2170
In short: as §1

[3] = system: NCI-H522
In short: as §1

[4] = system: BEN
In short: as §1

[5] = system: LXF-289
In short: as §1

[6] = system: NCI-H1563
In short: as §1

[7] = system: HCC-44
In short: as §1

[8] = system: HARA
In short: as §1

[9] = system: NCI-H727
In short: as §1

[10] = system: COR-L 105
In short: as §1

[11] = system: PC-3 [JPC-3]
In short: as §1

[12] = system: HOP-62
In short: as §1

[13] = system: LCLC-97TM1
In short: as §1

[14] = system: NCI-H2009
In short: as §1

[15] = system: NCI-H1993
In short: as §1

[16] = system: LC-2-ad
In short: as §1

[17] = system: NCI-H2087
In short: as §1

[18] = system: PC-14
In short: as §1

[19] = system: HCC-15
In short: as §1

[20] = system: LU99A
In short: as §1

[21] = system: COR-L23
In short: as §1

[22] = system: NCI-H2126
In short: as §1

[23] = system: SK-MES-1
In short: as §1

[24] = system: CAL-12T
In short: as §1

Work on CCCCCCCCCCCC1=C(O)C(=O)C=C(O)C1=O [Embelin] + CCNC(=O)c1noc(-c2cc(C(C)C)c(O)cc2O)c1-c1ccc(CN2CCOCC2)cc1 [Luminespib] (partner 0.01 µM) yielded a relative viability ([1]; first compound 0.08 µM) of 0.857, a relative viability ([1]; first compound 0.8 µM) of 0.885 and a relative viability ([1]; first compound 2.53 µM) of 0.864. It also gave a relative viability ([1]; first compound 8 µM) of 0.657, a relative viability ([2]; first compound 0.08 µM) of 0.701 and a relative viability ([2]; first compound 0.8 µM) of 0.753. The relative viability ([2]; first compound 2.53 µM) was 0.397, the relative viability ([2]; first compound 8 µM) was 0.589 and the relative viability ([3]; first compound 0.08 µM) was 1.26. It also gave a relative viability ([3]; first compound 0.8 µM) of 1.2, a relative viability ([3]; first compound 2.53 µM) of 1.34 and a relative viability ([3]; first compound 8 µM) of 1.12. It also gave a relative viability ([4]; first compound 0.08 µM) of 0.29, a relative viability ([4]; first compound 0.8 µM) of 1.12 and a relative viability ([4]; first compound 2.53 µM) of 0.435. It also gave a relative viability ([4]; first compound 8 µM) of 0.517, a relative viability ([5]; first compound 0.08 µM) of 0.548 and a relative viability ([5]; first compound 0.8 µM) of 0.619. The relative viability ([5]; first compound 2.53 µM) was 0.781, the relative viability ([5]; first compound 8 µM) was 0.751 and the relative viability ([6]; first compound 0.08 µM) was 0.568. The relative viability ([6]; first compound 0.8 µM) was 0.573, the relative viability ([6]; first compound 2.53 µM) was 0.526 and the relative viability ([6]; first compound 8 µM) was 0.487. For the same molecule, the relative viability ([7]; first compound 0.08 µM) was 1.04, the relative viability ([7]; first compound 0.8 µM) was 1.1 and the relative viability ([7]; first compound 2.53 µM) was 1.37. For the same molecule, the relative viability ([7]; first compound 8 µM) was 0.852, the relative viability ([8]; first compound 0.08 µM) was 0.832 and the relative viability ([8]; first compound 0.8 µM) was 0.919. For the same molecule, the relative viability ([8]; first compound 2.53 µM) was 0.987, the relative viability ([8]; first compound 8 µM) was 0.821 and the relative viability ([9]; first compound 0.08 µM) was 0.317. It also gave a relative viability ([9]; first compound 0.8 µM) of 0.417, a relative viability ([9]; first compound 2.53 µM) of 0.304 and a relative viability ([9]; first compound 8 µM) of 0.386. For the same molecule, the relative viability ([10]; first compound 0.08 µM) was 0.778, the relative viability ([10]; first compound 0.8 µM) was 0.894 and the relative viability ([10]; first compound 2.53 µM) was 0.737. The relative viability ([10]; first compound 8 µM) was 0.624, the relative viability ([11]; first compound 0.08 µM) was 0.798 and the relative viability ([11]; first compound 0.8 µM) was 0.752. It also gave a relative viability ([11]; first compound 2.53 µM) of 0.724, a relative viability ([11]; first compound 8 µM) of 0.599 and a relative viability ([12]; first compound 0.08 µM) of 0.971. It also gave a relative viability ([12]; first compound 0.8 µM) of 0.958, a relative viability ([12]; first compound 2.53 µM) of 1.07 and a relative viability ([12]; first compound 8 µM) of 0.842. It also gave a relative viability ([13]; first compound 0.08 µM) of 0.78, a relative viability ([13]; first compound 0.8 µM) of 0.899 and a relative viability ([13]; first compound 2.53 µM) of 0.907. The relative viability ([13]; first compound 8 µM) was 0.872, the relative viability ([14]; first compound 0.08 µM) was 1.05 and the relative viability ([14]; first compound 0.8 µM) was 1.07. It also gave a relative viability ([14]; first compound 2.53 µM) of 1.08, a relative viability ([14]; first compound 8 µM) of 1.01 and a relative viability ([15]; first compound 0.08 µM) of 0.848. For the same molecule, the relative viability ([15]; first compound 0.8 µM) was 0.763, the relative viability ([15]; first compound 2.53 µM) was 1.04 and the relative viability ([15]; first compound 8 µM) was 0.963. For the same molecule, the relative viability ([16]; first compound 0.08 µM) was 0.892, the relative viability ([16]; first compound 0.8 µM) was 1.28 and the relative viability ([16]; first compound 2.53 µM) was 1.1. The relative viability ([16]; first compound 8 µM) was 0.806, the relative viability ([17]; first compound 0.08 µM) was 0.162 and the relative viability ([17]; first compound 0.8 µM) was 0.186. For the same molecule, the relative viability ([17]; first compound 2.53 µM) was 0.141, the relative viability ([17]; first compound 8 µM) was 0.172 and the relative viability ([18]; first compound 0.08 µM) was 0.203. The relative viability ([18]; first compound 0.8 µM) was 0.235, the relative viability ([18]; first compound 2.53 µM) was 0.211 and the relative viability ([18]; first compound 8 µM) was 0.167. It also gave a relative viability ([19]; first compound 0.08 µM) of 0.243, a relative viability ([19]; first compound 0.8 µM) of 0.299 and a relative viability ([19]; first compound 2.53 µM) of 0.3. It also gave a relative viability ([19]; first compound 8 µM) of 0.302, a relative viability ([20]; first compound 0.08 µM) of 0.273 and a relative viability ([20]; first compound 0.8 µM) of 0.275. It also gave a relative viability ([20]; first compound 2.53 µM) of 0.28, a relative viability ([20]; first compound 8 µM) of 0.279 and a relative viability ([21]; first compound 0.08 µM) of 0.773. It also gave a relative viability ([21]; first compound 0.8 µM) of 0.73, a relative viability ([21]; first compound 2.53 µM) of 0.911 and a relative viability ([21]; first compound 8 µM) of 0.763. For the same molecule, the relative viability ([22]; first compound 0.08 µM) was 0.838, the relative viability ([22]; first compound 0.8 µM) was 1.01 and the relative viability ([22]; first compound 2.53 µM) was 0.965. For the same molecule, the relative viability ([22]; first compound 8 µM) was 0.927, the relative viability ([23]; first compound 0.08 µM) was 0.723 and the relative viability ([23]; first compound 0.8 µM) was 1.05. It also gave a relative viability ([23]; first compound 2.53 µM) of 0.918, a relative viability ([23]; first compound 8 µM) of 0.695 and a relative viability ([24]; first compound 0.08 µM) of 0.499. For the same molecule, the relative viability ([24]; first compound 0.8 µM) was 0.69, the relative viability ([24]; first compound 2.53 µM) was 0.626 and the relative viability ([24]; first compound 8 µM) was 0.189.
